Values quoted from earlier work in patent US20090232916A1, “FOOD PRODUCTS FOR DIABETICS” (priority 2004, published 2009).

Test system: IGT subjects
Conditions: over a period of three years

Compound: CN(C)C(=N)N=C(N)N [metformin]
- reduction of the risk of progressing from IGT to diabetes: 31%
